Ten compounds from US20100113465A1, “7-AZASPIRO[3.5]NONANE-7-CARBOXAMIDE COMPOUNDS” (Pfizer Inc., priority 2008, published 2010) can be followed below.

Assay [1] has as its target T1, rat FAAH (Rattus norvegicus, UniProt P97612).
T1 construct: made in house; host or cells: E. coli
T1 sequence (P97612 1-579): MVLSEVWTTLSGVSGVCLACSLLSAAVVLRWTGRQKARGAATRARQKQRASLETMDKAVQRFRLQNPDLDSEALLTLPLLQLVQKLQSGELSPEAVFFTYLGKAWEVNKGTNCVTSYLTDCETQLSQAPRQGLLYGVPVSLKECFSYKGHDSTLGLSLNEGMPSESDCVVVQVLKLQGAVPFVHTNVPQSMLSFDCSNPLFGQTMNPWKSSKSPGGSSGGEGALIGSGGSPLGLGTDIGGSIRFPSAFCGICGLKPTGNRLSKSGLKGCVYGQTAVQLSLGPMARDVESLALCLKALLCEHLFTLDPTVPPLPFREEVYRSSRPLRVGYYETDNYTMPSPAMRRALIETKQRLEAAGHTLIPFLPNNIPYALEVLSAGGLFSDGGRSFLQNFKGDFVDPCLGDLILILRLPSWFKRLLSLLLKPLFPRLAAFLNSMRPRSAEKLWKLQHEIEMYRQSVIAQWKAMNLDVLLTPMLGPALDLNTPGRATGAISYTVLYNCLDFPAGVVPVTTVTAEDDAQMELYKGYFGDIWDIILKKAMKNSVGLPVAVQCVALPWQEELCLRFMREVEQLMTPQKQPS
Kind of assay: FAAH assay, rat FAAH enzyme inhibition (kinact/Ki). In kind it is biochemical. To be noted: oleamide substrate 50 μM, 30° C., read-out: rFAAH kinact/Ki. In outline: (§1)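 Purified E. coli-expressed FAAH (1-4 nM) with oleamide at Km (50 μM), coupled GDH/NADH read at 340 nm over 90 min, 30° C, pH 7.4, 7.5% DMSO and EtOH. kobs from mono-exponential fits; kinact/Ki from kobs vs inhibitor slope, multiplied by two.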

Assay [2] has as its target T2, human FAAH (Homo sapiens, UniProt O00519).
T2 construct: made in house; host or cells: E. coli
T2 sequence (O00519 1-579): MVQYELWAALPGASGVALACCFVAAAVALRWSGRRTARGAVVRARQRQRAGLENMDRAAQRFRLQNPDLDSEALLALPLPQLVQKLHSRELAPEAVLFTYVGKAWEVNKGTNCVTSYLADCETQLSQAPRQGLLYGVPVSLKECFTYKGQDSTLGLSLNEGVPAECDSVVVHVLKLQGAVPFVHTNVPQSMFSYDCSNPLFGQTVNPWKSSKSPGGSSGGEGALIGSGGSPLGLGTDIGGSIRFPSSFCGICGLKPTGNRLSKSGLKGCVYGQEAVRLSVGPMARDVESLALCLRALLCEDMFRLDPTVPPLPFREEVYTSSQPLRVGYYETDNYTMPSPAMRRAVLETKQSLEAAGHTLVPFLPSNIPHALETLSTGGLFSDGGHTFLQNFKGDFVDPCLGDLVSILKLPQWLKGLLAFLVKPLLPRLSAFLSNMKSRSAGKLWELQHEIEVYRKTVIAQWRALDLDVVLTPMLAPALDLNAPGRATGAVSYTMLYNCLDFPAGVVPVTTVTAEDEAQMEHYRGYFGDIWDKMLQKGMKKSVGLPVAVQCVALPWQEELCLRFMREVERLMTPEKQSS
The experiment in a line: FAAH assay, human FAAH enzyme inhibition (kinact/Ki). In kind it is biochemical. To be noted: oleamide substrate 50 μM, 30° C., read-out: hFAAH kinact/Ki. In outline:
as §1

The subject of assay [3] is Male Sprague-Dawley Rats. The experiment in a line: In vivo Complete Freund's Adjuvant (CFA) efficacy assay. Also noted: species or system rat; key: (+) indicates the test compound was determined to be efficacious at 3 mpk, oral dosing; (−) indicates the test compound was determined to not be efficacious at 3 mpk, oral dosing. To be noted: 3 mpk, oral dosing; inhibition of allodynia (PWT) four hours postdose vs vehicle, p<0.05. How it is done:
For additional information on the CFA efficacy assay, see Jayamanne et al., Brit. J. Pharmacol. 2006, 147, 281-288. Experiments were performed on adult Male Sprague-Dawley Rats (200 g-250 g). Inflammation was induced in the left hindpaw of the rat by an intra-plantar injection of 150 uL Complete Freund's Adjuvant (CFA) (SIGMA F5881). The CFA injection immediately induces local inflammation, paw swelling, and pain that persists for at least two weeks post-injection. Baseline paw withdrawal threshold (PWT) was measured to determine the percent inhibition of allodynia using a set of Von Frey Hairs on day 4 post injection as illustrated by the Dixon Up and Down Method (W. J. Dixon, Ann. Rev. Pharmacol. Toxicol. 1980, 20:441-462). […] Test compound was administered at a concentration of 3 mg/kg (mpk) orally with the dosing vehicle 5% N,N′-Dimethylacetamide (SIGMA D137510) and 95% (40% 2-hydroxypropyl-beta-cyclodextrin in water) (SIGMA H107). Following Dose administration PWT threshold was evaluated again at four hours postdose. The Sprague-Dawley rats used in this assay were purchased from Harlan, 8520 Allison Pointe Blvd., Indianapolis, Ind., 46250, U.S.A. Sprague-Dawley rats are an outbred breed of albino rats first produced by the Sprague Dawley farms in Madison, Wis., U.S.A.
Percent Inhibition of Allodynia was determined by the formula: […]
ΔPWT measurements were averaged for each treatment group and statistical comparisons between groups were made using ANOVA and Dunnett's two-tailed test. […]

With `Cc1noc(NC(=O)N2CCC3(CC2)CC(c2cccc(C(F)(F)F)c2F)C3)c1C` [Example 30, N-(3,4-dimethylisoxazol-5-yl)-2-[2-fluoro-3-(trifluoromethyl)phenyl]-7-azaspiro[3.5]nonane-7-carboxamide], the kinact/KI in assay [1] is 2340 M⁻¹ s⁻¹; in assay [2] it was 3240 M⁻¹ s⁻¹. Moreover, the “CFA Efficacy” value in assay [3] is recorded as “(+)”.

Regarding `Cc1noc(NC(=O)N2CCC3(CC2)CC(F)(c2cccc(Cl)c2)C3)c1C` [Example 32, 2-(3-chlorophenyl)-N-(3,4-dimethylisoxazol-5-yl)-2-fluoro-7-azaspiro[3.5]nonane-7-carboxamide], the kinact/KI in assay [1] was found to be 1320 M⁻¹ s⁻¹; in assay [2] it was 2830 M⁻¹ s⁻¹. The “CFA Efficacy” value in assay [3] is given as “(+)”.

Consider `Cc1noc(NC(=O)N2CCC3(CC2)CC(c2noc(-c4ccc(C(F)(F)F)cc4)n2)C3)c1C` [Example 33, N-(3,4-dimethylisoxazol-5-yl)-2-{5-[4-(trifluoromethyl)phenyl]-1,2,4-oxadiazol-3-yl}-7-azaspiro[3.5]nonane-7-carboxamide], for which the kinact/KI came to 636 M⁻¹ s⁻¹ in assay [1] and 1600 M⁻¹ s⁻¹ in assay [2]. Also, in assay [3], the “CFA Efficacy” value is “(+)”.

Regarding `CCc1noc(NC(=O)N2CCC3(CC2)CC(c2cccc(OC(F)(F)F)c2)C3)c1C` [Example 34, N-(3-ethyl-4-methylisoxazol-5-yl)-2-[3-(trifluoromethoxy)phenyl]-7-azaspiro[3.5]nonane-7-carboxamide], the kinact/KI is 1660 M⁻¹ s⁻¹ in assay [1] and 1650 M⁻¹ s⁻¹ in assay [2]. Also, the “CFA Efficacy” value in assay [3] was “(+)”.

Regarding `Cc1noc(NC(=O)N2CCC3(CC2)CC(c2csc(-c4cccc(C(F)(F)F)c4)n2)C3)c1C` [Example 36, N-(3,4-dimethylisoxazol-5-yl)-2-{2-[3-(trifluoromethyl)phenyl]-1,3-thiazol-4-yl}-7-azaspiro[3.5]nonane-7-carboxamide], the kinact/KI was 1160 M⁻¹ s⁻¹ in assay [1] and 2030 M⁻¹ s⁻¹ in assay [2]. The “CFA Efficacy” value in assay [3] is “(+)”.

Take `Cn1nnnc1NC(=O)N1CCC2(CC1)CC(c1cccc(OC(F)(F)F)c1)C2` [Example 45, N-(1-methyl-1H-tetrazol-5-yl)-2-[3-(trifluoromethoxy)phenyl]-7-azaspiro[3.5]nonane-7-carboxamide]: the results for the kinact/KI in assay [1] and in assay [2] were 4570 M⁻¹ s⁻¹ and 13200 M⁻¹ s⁻¹, respectively. Moreover, the “CFA Efficacy” value in assay [3] is recorded as “(+)”.

Turning to `Cn1nnnc1NC(=O)N1CCC2(CC1)CC(c1cccc(Cl)c1F)C2` [Example 46, 2-(3-chloro-2-fluorophenyl)-N-(1-methyl-1H-tetrazol-5-yl)-7-azaspiro[3.5]nonane-7-carboxamide], the kinact/KI in assay [1] is 3410 M⁻¹ s⁻¹; in assay [2], 14100 M⁻¹ s⁻¹. Besides, the “CFA Efficacy” value in assay [3] was “(+)”.

`Cn1nnnc1NC(=O)N1CCC2(CC1)CC(c1cccc(C(F)(F)F)c1F)C2` [Example 47, 2-[2-fluoro-3-(trifluoromethyl)phenyl]-N-(1-methyl-1H-tetrazol-5-yl)-7-azaspiro[3.5]nonane-7-carboxamide]: the values for the kinact/KI in assay [1] and in assay [2] were 3330 M⁻¹ s⁻¹ and 15400 M⁻¹ s⁻¹, respectively. The “CFA Efficacy” value in assay [3] is listed as “(+)”.

`Cn1nnnc1NC(=O)N1CCC2(CC1)CC(c1ccc(F)c(Cl)c1)C2` [Example 48, 2-(3-chloro-4-fluorophenyl)-N-(1-methyl-1H-tetrazol-5-yl)-7-azaspiro[3.5]nonane-7-carboxamide]: the kinact/KI in assay [1] amounted to 5940 M⁻¹ s⁻¹; in assay [2], 16300 M⁻¹ s⁻¹. In addition, the “CFA Efficacy” value in assay [3] is recorded as “(+)”.

Consider `Cn1nnnc1NC(=O)N1CCC2(CC1)CC(c1noc(-c3ccc(C(F)(F)F)cc3)n1)C2` [Example 49, N-(1-methyl-1H-tetrazol-5-yl)-2-{5-[4-(trifluoromethyl)phenyl]-1,2,4-oxadiazol-3-yl}-7-azaspiro[3.5]nonane-7-carboxamide], for which the kinact/KI in assay [1] is 552 M⁻¹ s⁻¹; in assay [2], 5240 M⁻¹ s⁻¹. The “CFA Efficacy” value in assay [3] is “(+)”.
